A melting point compilation (Tetko et al.; mined from patent text by program, amines drawn as free bases though some values may be those of a salt)

Compound	melting point [°C]
O[C@H](COc1cccc2[nH]ccc12)CN1CC=C(c2c[nH]c3cc(Cl)ccc23)CC1	200 to 202
CCC(=O)c1ccc(=O)[nH]c1C=CN(C)C	204 to 206
Cn1c(N)c(CN2CCN(c3cccc4c3OCCO4)CC2)c(=O)n1-c1ccccc1	222 to 224
Cc1c2c(c(CCC=O)c(C(C)C)c1OCc1ccccc1)OC(C)(C)C2	88 to 89
CCN1C[C@@H](O)[C@H](N(C)C(=O)c2ccc([N+](=O)[O-])cc2)C1 (relative stereo)	104 to 108
Cc1nnc2c3[nH]cnc3n(Cc3ccccc3)c(=O)n12	309 to 310
Cc1ccccc1NC(=O)Nc1ccc(CC(=O)NC2(c3cc(CCC(=O)O)on3)CCCC2)cc1	195 to 197
O=C(Nc1ccc(C(=O)N2Cc3cccn3Cc3ccccc32)cc1)c1cccc(F)c1F	252 to 258
Oc1cccc(CCNCc2ccccc2)c1	86 to 88
CCOC(=O)c1cnc2c3cc(NC(=O)C(CC)CC)ccc3ncn2c1=O	220 to 222
CO[C@]1(c2csc(Sc3ccc4c(c3)CC/C4=N\O)c2)CCO[C@@H]1C (racemic)	140 to 142
Nc1ccncc1NC(=S)NCCN1CCC(Nc2nc3ccccc3n2Cc2ccc(F)cc2)C1 (centres undefined)	225
COc1ccc2cc(N3CCN(C4CCC(c5c[nH]c6ccc(F)cc56)CC4)CC3)ccc2c1 (centres undefined)	200 to 203
O=C(CCN1CCC(C(O)(c2ccc(F)cc2)c2ccc(F)cc2)CC1)Nc1ccccc1	190 to 192
OC(c1ccccc1)(c1ncc[nH]1)c1ccccc1Cl (centres undefined)	186 to 188
O=C(c1ccccc1)c1ccc(N2CCC(N3Cc4ccccc4C3=O)CC2)cc1	173 to 175
CC(Oc1ccc(Oc2ccc(C(F)(F)F)cc2)cc1)C(=O)OCC#N (centres undefined)	53 to 56

Compound	melting point [°C]
CNC(=O)c1ccc(Nc2nc(Nc3cc4c(cc3OC)CCN(C(COC)COC)CC4)ncc2Cl)c(OC)c1	85 to 97
Cc1ccc2c(c1)Cc1c(C(=O)C(C#N)C(=O)Nc3ccccc3)nn(-c3ccccc3)c1-2 (centres undefined)	249 to 251
O=CCC(F)(F)CN1C(=O)c2ccccc2C1=O	76 to 78
NS(=O)(=O)c1ccc(-n2nc(CNC(=O)NO)cc2-c2ccc(Cl)cc2)cc1	216 to 218
CCC(CC)c1ccc(Cl)c2[nH]c(=O)n(C)c12	165 to 166
O=C(O)c1ccc(-c2ccc(NS(=O)(=O)C(F)(F)F)cc2)[nH]c1=O	> 260
Nc1ccc(C(O)c2ccc(Cl)cn2)cc1 (centres undefined)	122 to 123
CCCCc1nc2c(N)nc3ccccc3c2n1CCCCCC(=O)c1ccccc1	149 to 151
CC(C)CN(CC(C)C)C(=O)c1ccc(F)c([N+](=O)[O-])c1	47
CN1C(=O)CC[C@]2(C)c3ccc(Sc4nc5cccc(Cl)c5s4)cc3CC[C@@H]12	90 to 91
CC(=O)c1ccc(OCCCN2CCC(c3noc4cc(F)ccc34)CC2)c(O)c1	122 to 124
C=CCNc1nc(NCC=C)nc(N2CCNCC2)n1	93 to 94.5
O=C(O)CCCC(=O)N[C@@H](Cc1ccc(-c2ccccc2)cc1)C(=O)NCCCCNc1ncccn1	228
CC(C)(C)N[C@@H]1Cc2c(O)cccc2C[C@H]1O (relative stereo)	123 to 127
O=C(C(=O)c1cccc(F)c1)c1cccc(F)c1	104 to 105
CCOC(=O)c1cnc([N+](=O)[O-])n1C	65 to 66
Fc1ccc2c(c1)C(c1ccccc1F)=NCCN2C1=NCCO1	180 to 181

Second part, the compound after the results:

melting point [°C]	Compound
112 to 113	N#Cc1ccc(N(Cc2ccc(OCc3ccccc3)cc2)n2cncn2)cc1-c1ccccc1
150 to 152	COc1cc2ncc(O[C@H]3CC[C@@H](OC(C)=O)CC3)nc2cc1OC
> 260	O=C(O)c1cnc(N2CCN(S(=O)(=O)c3ccc4ccccc4c3)CC2)nc1
130 to 132	CCOC(=O)CC[C@H](NC(=O)c1ccc(N)cc1F)C(=O)OCC
145 to 148	COC(=O)CN1CCC[C@H]1C(=O)N[C@@H](Cc1ccccc1)C(=O)N1CCC[C@H]1C(=O)O
118 to 119	CC(=O)Nc1cccc(OCc2ccccc2)c1CCOC(C)=O
188 to 190	O=C(c1ccccc1)c1[nH]c2cc(Cl)ccc2c1CC(=O)N1CCOCC1
228 to 230	CCN1C(=O)NC(Cc2c[nH]c3ccccc23)C1CCc1cc(C(F)(F)F)cc(C(F)(F)F)c1 (centres undefined)
156 to 158	NC(=O)c1cc([N+](=O)[O-])cnc1C(Br)Br
165 to 166	O=c1c(O)c(-c2ccoc2)oc2ccccc12
169 to 171	COc1ccc(F)cc1Oc1c(Cl)ncnc1NS(=O)(=O)c1ccc(Cl)cc1
263 to 265	CC(C)Cn1cnc2c(N)nc3cccc(-c4ccccc4)c3c21
143 to 145	CCn1cc(O)c(=O)cc1CO
55 to 63	COC(=O)c1oc2ccc(OC)cc2c1OC(C)C
155 to 156	CCN(CC)Cc1cnc2c(C)c(NC(=O)c3ccc(-c4ccc(F)cc4)cc3)ccc2c1
124 to 125	CCCc1c(OCCCOc2c(C(C)=O)ccc(OCC(=O)O)c2CCC)ccc(C(C)=O)c1O
70 to 72	CCOC(=O)C(=CNc1cc(C)nn1-c1ccccc1)C(=O)OCC
207	CN(C)CC(=O)Nc1ccc(Cl)c(C(=O)Nc2cccc3c4c(oc23)CCCC4)c1Cl

melting point [°C]	Compound
236 to 238	CN1CCN(C(=O)c2nc(-c3ccccc3)nc3c2c2ccc(Cl)cc2n3C)CC1
178	Cc1c(C(=O)OCc2ccccc2)sc2ccc3[nH]c4c(c3c12)CNCC4
207	Cn1c(=O)c2c(Br)cccc2n2cnc(-c3noc(C4CC4)n3)c12
241 to 243	O=C1NC(=O)C2(C=Cc3cscc32)N1 (centres undefined)
87.5 to 90	CN(C)C(=O)C(C1CCCCC1)n1ccc(-c2ccccc2)n1 (centres undefined)
191 to 193	CC(=O)c1c(-c2ccc(Cl)cc2)c(-c2ccc(Cl)cc2)nn(CCO)c1=O
212	CCOC(=O)NC(=O)C(=NNc1cc(Cl)c(C(C)(C)C#N)c(Cl)c1)C(=O)NC(=O)OCC
108 to 111	COc1cc(F)c(C2CNCc3ccsc32)cc1OC (centres undefined)
105 to 107	CC(C)Cc1nn(C)c(=O)c2c(S(=O)(=O)CCCO)c(Cc3ccccc3)sc12
> 300	COc1ccc(-c2sc3ncc(CO)c(O)c3c2C)cc1
230	CCOc1cc(C(=O)O)cc(N)c1C(=O)c1ccccc1
63 to 65	CN(CCCS(=O)CCCC(F)(F)C(F)(F)F)CCOc1ccc(C2=C(c3ccccc3)CCCc3cc(O)ccc32)cc1 (centres undefined)
122 to 123	CC(C(N)=O)c1ccc2c(c1)CCc1ccccc1O2 (centres undefined)
131 to 132	O=C(CC(=O)C1CC1)Nc1ccc(C(F)(F)F)cc1
156 to 158	O=C(NNc1ccccc1Cl)c1c(F)cccc1Cl
161 to 163	O=c1nc(N2CCN(Cc3ccccc3)CC2)sc2c([N+](=O)[O-])cc(C(F)(F)F)cc12
169 to 171	CCOC(=O)Nc1ccc2c(c1)c1c(n2Cc2cccc(F)c2)CC[C@@H](NC(=O)C(C)C)C1
